Values quoted from earlier work as cited in patent publication US6939987B2, “Method for producing Aspartame derivative, method for purifying the same, crystals thereof and uses of the same” (Ajinomoto Co., Inc., priority 1999, dated 2005).

Conditions: relative to sucrose; reported in International Patent Publication WO94/11391

COC(=O)[C@H](Cc1ccccc1)NC(=O)[C@H](CC(=O)O)NCCC(C)(C)C [N-[N-(3,3-dimethylbutyl)-L-α-aspartyl]-L-phenylalanine 1-methyl ester]
sweetening potency: 10000 times that of sucrose
